Measured values published in PubChem BioAssay AID1361 (SRMLSC, 2008).
Active and inactive are the calls of the source. How the calls were made is not given here.

Test: blockers of mitochondrial fusion, WT vs mutant – cell-based, chemical genetic, wild-type and mutant, confirmation (AID 1361)
Details: Cell-based mitochondrial fusion phenotype, imaging
[1] = mutant cells, measured here: mutant cell line IC50

SMILES | IC50 (WT cells) | IC50 [1] [µM]
CCn1c(O)c(C(c2ccccn2)c2c(O)n(CC)c(=S)[nH]c2=O)c(=O)[nH]c1=S | > 25 µM (inactive) | > 25
O=C(CSCC(=O)OCn1nnc2ccccc2c1=O)Nc1ccc(Cl)cc1 | > 25 µM (inactive) | > 25
O=C(CSc1nnc2scc(-c3ccccc3)n12)Nc1ccc2c(c1)OCCO2 | > 25 µM (inactive) | > 25
O=C(c1cc(-c2ccc(Cl)cc2)n(-c2ccc(Cl)c(Cl)c2)n1)N1CCOCC1 | 16.9 µM | > 25
O=C(CNC(=S)N(Cc1ccccc1)Cc1ccccc1F)NCCc1ccccc1 | 20.1 µM | > 25
Cc1cc(=O)oc(C)c1C(=O)Nc1ccc2nsnc2c1 | > 25 µM (inactive) | > 25
CC(C)(C)N/N=C1\CC(c2ccccc2)Oc2ccccc21 (centres undefined) | 14.5 µM | > 25
COc1cccc(C2Nc3c(F)cc(Br)cc3C3C=CCC32)c1OC (centres undefined) | 14.9 µM | > 25
S=c1[nH]nc(-c2ccc3ccccc3n2)n1-c1cc(Cl)cc(Cl)c1 | 13.7 µM | > 25
COc1ccc(CNC(=O)[C@H](C)[C@@H]2C[C@@]2(C)[C@@H](NC(=O)OCc2ccccc2)c2ccccc2)cc1OC | 22.6 µM | > 25
Clc1ccc(-c2csc3ncnc(N4CCc5ccccc5C4)c23)cc1 | 10 µM | > 25
CCCCNC(=O)C1CCN(S(=O)(=O)c2cnc[nH]2)CC1 | > 25 µM (inactive) | > 25
CC1(C)C=C2[C@H]3CC[C@@H]4[C@@]5(C)CCC(=O)C(C)(C)[C@@H]5CC[C@@]4(C)[C@]3(C)CC[C@@]2(C(=O)O)CC1 | 21.9 µM | > 25
OC(CC1CC12c1ccccc1-c1ncccc12)(c1ccccc1)c1ccccc1 (centres undefined) | 13.8 µM | > 25
Cc1cc(C)cc(NS(=O)(=O)c2ccc(Oc3ncc(C(F)(F)F)cc3Cl)cc2)c1 | 10.9 µM | > 25
Cc1cccn2c(=O)c(C=NCc3ccco3)c(Nc3ccc(SC(F)F)cc3)nc12 | > 25 µM (inactive) | > 25
CC(NC(c1ccccc1)c1ccccc1)C(=O)N1CCCc2ccccc21 (centres undefined) | 19.9 µM (inactive) | > 12.5
CC1CN(c2oc(Cc3cccc4ccccc34)nc2C#N)CC(C)O1 (centres undefined) | > 25 µM (inactive) | > 25
CCSc1ccc2cc(OC)ccc2[n+]1CC | 23.1 µM | > 25
c1ccc(Cn2c(SCc3cn4cccnc4n3)nnc2-c2ccco2)cc1 | > 25 µM (inactive) | > 25
CC(C)(C)n1nnnc1C(c1ccc(F)cc1)N(Cc1ccc(F)cc1)Cc1ccco1 (centres undefined) | 14.6 µM | > 25

SMILES | IC50 (WT cells) | IC50 [1] [µM]
CC(C)(C)c1ccc(CSc2nnc(-c3ccccn3)n2Cc2ccco2)cc1 | 17.6 µM | > 25
O=C(Nc1ccccc1)Nc1cc(OCC(F)(F)F)cc(OCC(F)(F)F)c1 | 16.3 µM | > 25
Cc1cc(NC(=O)C2CCCCC2)nc2c1c(=O)oc1ccccc12 | 19.4 µM | 23.8
O=C(Nc1ccccc1N1CCOCC1)c1cccc(F)c1 | 9.3 µM | 21.6
Cc1nc(N2CCCCC2)c2c(-c3cccs3)csc2n1 | 22.4 µM | > 25
CCOc1ccccc1CNC(=O)c1ccc(Sc2ccc(Cl)cc2)c(NC(C)=O)c1 | 16.9 µM | > 25
CCOC(=O)c1c(-c2ccc(C)cc2)csc1NC(=O)C1CCCO1 (centres undefined) | > 25 µM (inactive) | > 25
CC1=C(C#N)C(NC(=O)c2ccc(C)cc2)(C(F)(F)F)C(=O)N1 (centres undefined) | > 25 µM (inactive) | > 25
N#Cc1sc2nc(C3CC3)cc(-c3ccc(Cl)cc3)c2c1N | 11.7 µM | 19.5
CC(C)=CCc1c(O)c(CC=C(C)C)c2c(c1O)C(=O)CC(c1ccc(O)cc1)O2 (centres undefined) | 10.7 µM | > 25
CC(=O)N1N=C(c2ccc(C)cc2)OC1c1ccc(Br)cc1 (centres undefined) | 21 µM | > 25
C=CCSc1nnc(NC(=O)COc2ccc3ccccc3c2)s1 | > 25 µM (inactive) | > 25
CC(C)(C)c1cc(/C=N/O)cc(C(C)(C)C)c1O | > 25 µM (inactive) | > 25
NS(=O)(=O)c1ccc(N2N=C(c3ccccc3)CC2c2ccccc2)cc1 (centres undefined) | 12.1 µM | > 25
CC1CCN(c2nc(Cl)nc(Nc3ccc([N+](=O)[O-])cc3)n2)CC1 | 7.41 µM | > 25
Cc1nc2ccccc2nc(C)c1=NOCc1ccc(Cl)cc1Cl | 24.2 µM | > 25
C=C(C)C1CC=C(C)/C(=N\NC(=S)Nc2ccc(C)cc2)C1 (centres undefined) | > 25 µM (inactive) | > 25
CCOC(=O)C1CCc2nc3ccccc3c(=O)n21 (centres undefined) | > 25 µM (inactive) | > 25
Cc1ccc(C(=O)NC(=S)/C=C2\N(C)c3ccccc3C2(C)C)cc1 | 12 µM | > 25
Cc1ccc(NC(=S)N(CCCN2CCCC2)Cc2cccn2Cc2ccc(Cl)cc2)cc1 | 14.4 µM | > 25
CCCCSc1nnc(CNC(=O)C23CC4CC(CC(C4)C2)C3)n1Cc1ccccc1 | > 25 µM (inactive) | > 25

SMILES | IC50 (WT cells) | IC50 [1] [µM]
CC(=O)Oc1ccc(N(C(C)=O)S(=O)(=O)c2cccs2)cc1 | > 25 µM (inactive) | > 25
c1ccc2c(c1)sc1nnnn12 | > 25 µM (inactive) | > 25
CC(NC(=O)COc1ccccc1-c1ccccc1)c1ccccc1 (centres undefined) | 15 µM | > 25
Cc1cccc(-n2ncc3c(N4CC(C)CC(C)C4)ncnc32)c1 (centres undefined) | 14.6 µM | 20
N#CC1=C(N)NC(SCC(=O)c2ccc(Br)cc2)=C(C#N)C12CCCCC2 | 19.4 µM | > 25
COc1cccc(C2CN(c3ccc(F)cc3F)N=C2c2cccs2)c1OC (centres undefined) | 10 µM | > 25
O=C(Nc1cc(Cl)ccc1Oc1ccccc1)c1ccc(F)cc1 | 22.7 µM | > 25
CCOC(=O)N1CCC(NC(=O)c2cc(-c3ccc(F)cc3)[nH]c2C)CC1 | > 25 µM (inactive) | > 25
CC1CCCN(c2nc3c(c(=O)[nH]c(=O)n3C)n2Cc2ccccc2Cl)C1 (centres undefined) | 17.4 µM | > 25
CCOC(=O)c1cnc(-c2ccccc2)nc1-c1ccccc1 | > 25 µM (inactive) | > 25
CC(C)C12CN3CCN(CC(C3)C1O)C2 (centres undefined) | > 25 µM (inactive) | > 25
CCCn1c(N2CCC(Cc3ccccc3)CC2)nc2c1c(=O)[nH]c(=O)n2C | > 25 µM (inactive) | > 25
Cc1cc(Br)ccc1NC(=O)CN1C(=O)C2C3CC(c4ccccc4)C(C3)C2C1=O (centres undefined) | 20.4 µM | > 25
CCOC(=O)C1=NN(c2ccccc2)C2=NC(C)=C(C(=O)OC)C(c3ccc(C)cc3)N12 (centres undefined) | 8.75 µM | > 25
O=c1[nH]c(=O)n(Cc2ccco2)c2c1C(C(F)(F)F)(C(F)(F)F)N=C(Cc1ccccc1)N2 | > 25 µM (inactive) | > 12.5
CCC(C)(C)c1ccc(OCC(=O)N(C)C)c(C(C)(C)CC)c1 | 20.9 µM | > 25
O=C(c1ccc(-c2nnc(-c3ccccc3)o2)cc1)N1CCCCCC1 | > 25 µM (inactive) | > 25
CC/C(=C\C1CCCCC1)C(NP(=O)(c1ccccc1)c1ccccc1)c1ccccc1 (centres undefined) | 7.6 µM | > 25
COc1cc(NC(=S)NCCC(c2ccccc2)c2ccccc2)cc(OC)c1 | 4.78 µM | > 25
O=C(N/N=C/c1c[nH]c2ccccc12)c1[nH]c2ccc(Br)cc2c1-c1ccccc1 | 3.58 µM | 14.9
CCn1nccc1C(=O)Nc1ccc(S(=O)(=O)NC23CC4CC(CC(C4)C2)C3)cc1 | > 25 µM (inactive) | > 25

SMILES | IC50 (WT cells) | IC50 [1] [µM]
Cc1ccc(Cl)cc1N1CCN(C(=O)c2cccc3c(=O)c(C)c(-c4ccccc4)oc23)CC1 | 9.75 µM | > 25
CC12CCC3C(CC=C4CC(O)CCC43C)C1C/C(=C\c1ccccc1F)C2=O (centres undefined) | 9.36 µM | > 25
O=C(CN1CCc2ccccc2C1)Nc1ccccc1N1CCCCCC1 | 10.3 µM | > 25
O=C(Nc1ccccc1Oc1ccccc1)c1cc([N+](=O)[O-])ccc1Cl | 6.46 µM | 19.6
O=C(NCc1ccco1)c1cccnc1-c1nc2ccccc2s1 | > 25 µM (inactive) | > 25
COC(=O)C1=C(Nc2ccc(C)cc2)C=C(C)C(C(=O)OC)C1c1ccc(F)cc1 (centres undefined) | 6.62 µM | > 25
C/C(=N\N=C(/N)SC1CC(=O)N(c2cccc(Cl)c2)C1=O)c1cccs1 (centres undefined) | > 25 µM (inactive) | > 25
COC(=O)C1=C(O)/C(=C\c2ccc(CNC(=O)C(=O)Nc3ccc(C)cc3)o2)N=C1C | > 25 µM (inactive) | > 25
Cc1ccccc1Nc1scc(-c2ccc(Cl)cc2)[n+]1-c1ccccc1C | 8.24 µM | > 25
COc1cccc(-c2nc(-c3ccccn3)no2)c1 | > 25 µM (inactive) | > 25
Cc1ccc(O)c(-c2cc(-c3ccccc3[N+](=O)[O-])[nH]n2)c1 | > 25 µM (inactive) | > 25
CCn1cc(C(=O)N2CCc3ccccc32)c(=O)c2cc(S(=O)(=O)N(C)C3CCCCC3)ccc21 | > 25 µM (inactive) | > 25
CCN1C(=O)S/C(=C/c2c(OCc3ccc(C(=O)O)cc3)ccc3ccccc23)C1=O | 18.7 µM | > 25
CCOC(=O)c1c(C)[nH]c(C)c1C(=O)COC(=O)/C=C/c1cccc(C(F)(F)F)c1 | 20.6 µM | > 25
Cc1nc2ccc(NC(=O)c3nn(CC(C)C)c(=O)c4ccccc34)cc2s1 | > 25 µM (inactive) | > 25
COC(=O)c1ccc(CSc2nc3ccccc3c(=O)n2CC(C)C)o1 | > 25 µM (inactive) | > 25
COc1ccccc1C(=O)NC(=S)/C=C1/N(C)c2ccccc2C1(C)C | 10.8 µM | > 25
COc1ccc(OC)c(C(=O)c2coc3ccc(OC)cc23)c1 | > 25 µM (inactive) | > 25
COC(=O)C1=CN(CCOC23CC4CC(CC(C4)C2)C3)C=C(C(=O)OC)C1c1ccsc1 | 17 µM | > 25
